According to patent US5084453A, “1-carboxy-1-vinyloxyimino aminothiazole cephalosporin derivatives” (priority 1988, dated 1992):
≈ marks a conversion by molar mass, not a printed value. Like-named read-outs stand apart in the source and are kept apart here.

Columns and labels:
Test in all cases: in vitro antibacterial activity, agar plate dilution method
Format in all cases: cell-based
K. oxytoca GN10650* = conditions: Klebsiella oxytoca, GN10650, 16 h
Protocol: (§1) Now, the in vitro antibacterial activities of the compounds of the present invention against various microorganisms, were measured by the following agar plate dilution method.
(§2) One platinum loopfull of each test microorganism incubated overnight in Mueller Hinton broth, was inoculated to Mueller Hinton agar (MH agaer). Such culture media containing various antibiotics in various concentrations were prepared. After incubation at 37° C. for 16 hours, the minimum inhibitory concentrations (MIC μg/ml) were measured.

A. calcoaceticus No. 4 = conditions: Acinetobacter calcoaceticus
Protocol: as §1, §2

P. vulgaris HX-19 = conditions: Proteus vulgaris
Protocol: as §1, §2

E. cloacae Nek 39* = conditions: Enterobacter cloacae
Protocol: as §1, §2

S. marcescens IAM 1184 = conditions: Serratia marcescens
Protocol: as §1, §2

M. morganii GN5407* = conditions: Morganella morganii
Protocol: as §1, §2

S. marcescens No. 16-2* = conditions: Serratia marcescens
Protocol: as §1, §2

Ps. cepacia 23 = tested on: Ps. cepacia 23
Protocol: as §1, §2

E. coli CSH(RE45)* = conditions: Escherichia coli; 10^6 CFU/ml; β-Lactamase-producing strain; 37° C., 16 hours; read-out: MIC
Protocol: as §1, §2

Ps. aeruginosa AKR17 = conditions: Pseudomonas aeruginosa
Protocol: as §1, §2

K. pneumoniae PC1-602 = conditions: Klebsiella pneumoniae
Protocol: as §1, §2

K. pneumoniae No. 42* = conditions: Klebsiella pneumoniae
Protocol: as §1, §2

E. coli CSH2(RK1)* = conditions: Escherichia coli, 16 h
Protocol: as §1, §2

Ps. aeruginosa IFO3445 = conditions: Pseudomonas aeruginosa
Protocol: as §1, §2

E. cloacae 963 = conditions: Enterobacter cloacae, 963, 16 h
Protocol: as §1, §2

S. aureus 209P NIHJ-JC1 = conditions: Staphylococcus aureus
Protocol: as §1, §2

Ps. aeruginosa AK 109 = conditions: Pseudomonas aeruginosa
Protocol: as §1, §2

P. vulgaris No. 33* = conditions: Proteus vulgaris
Protocol: as §1, §2

E. coli GN5482* = conditions: Escherichia coli, GN5482, 16 h
Protocol: as §1, §2

E. coli NIHJ JC2 = conditions: Escherichia coli, NIHJJC2; 10^6 CFU/ml; Mueller Hinton agar, 37° C., 16 hours; read-out: MIC
Protocol: as §1, §2

[1] = NO.4, 10^6 CFU/ml, Mueller Hinton agar, 37° C., 16 hours, read-out: MIC
[2] = IAM1184, 10^6 CFU/ml, Mueller Hinton agar, 37° C., 16 hours, read-out: MIC
[3] = Burkholderia cepacia, 23, 10^6 CFU/ml, Mueller Hinton agar, 37° C., 16 hours, read-out: MIC
[4] = AKR17, 10^6 CFU/ml, Mueller Hinton agar, 37° C., 16 hours, read-out: MIC
[5] = PC1602, 10^6 CFU/ml, Mueller Hinton agar, 37° C., 16 hours, read-out: MIC
[6] = 10^6 CFU/ml, Mueller Hinton agar, 37° C., 16 hours, read-out: MIC
[7] = AK109, 10^6 CFU/ml, Mueller Hinton agar, 37° C., 16 hours, read-out: MIC
[8] = HX19, 10^6 CFU/ml, Mueller Hinton agar, 37° C., 16 hours, read-out: MIC
[9] = IFO3445, 10^6 CFU/ml, Mueller Hinton agar, 37° C., 16 hours, read-out: MIC
[10] = 10^6 CFU/ml, β-Lactamase-producing strain, 37° C., 16 hours, read-out: MIC

Compound | MIC (K. oxytoca GN10650*) [µg/mL] | MIC (A. calcoaceticus No. 4; [1]) [µg/mL] | MIC (E. cloacae Nek 39*; 16 h) [µg/mL] | MIC (S. marcescens IAM 1184; [2]) [µg/mL] | MIC (M. morganii GN5407*; GN5407, 16 h) [µg/mL] | MIC (S. marcescens No. 16-2*; 16 h) [µg/mL] | MIC (Ps. cepacia 23; [3]) [µg/mL] | MIC (E. coli CSH(RE45)*) [µg/mL] | MIC (Ps. aeruginosa AKR17; [4]) [µg/mL] | MIC (K. pneumoniae PC1-602; [5]) [µg/mL] | MIC (K. pneumoniae No. 42*; 16 h) [µg/mL] | MIC (E. coli CSH2(RK1)*) [µg/mL] | MIC (Ps. aeruginosa IFO3445; IFO3445, 16 h) [µg/mL] | MIC (E. cloacae 963) [µg/mL] | MIC (S. aureus 209P NIHJ-JC1; [6]) [µg/mL] | MIC (Ps. aeruginosa AK 109; [7]) [µg/mL] | MIC (P. vulgaris No. 33*; 16 h) [µg/mL] | MIC (E. coli GN5482*) [µg/mL] | MIC (E. coli NIHJ JC2) [µg/mL] | MIC (P. vulgaris HX-19; [8]) [µg/mL] | further results
C=C(O/N=C(\C(=O)N[C@@H]1C(=O)N2C(C(=O)[O-])=C(C[n+]3cccc(N)c3)CS[C@H]12)c1csc(N)n1)C(=O)O [Example 9, sodium 7β-[2-(2-aminothiazol-4-yl)-2-(1-carboxylato-1-vinyloxyimino)acetamido]-3-(3-amino-1-5 pyridinio)methyl 3-cephem-4-carboxylate (syn-isomer)] | 0.1 | 3.12 | 0.78 | < 0.006 | 0.39 | 1.56 | 3.12 | 0.0125 | > 100 | < 0.006 | 0.1 | 0.025 | 0.78 | 0.05 | 3.12 | 3.12 | 0.0125 | 0.2 | 0.025 |  | MIC (P. vulgaris HX-19; HX19, 16 h): 0.0125 µg/mL
C=C(O/N=C(\C(=O)N[C@@H]1C(=O)N2C(C(=O)[O-])=C(C[n+]3cccc4c3CCC4)CS[C@H]12)c1csc(N)n1)C(=O)O [Example 2, 7β-[2-(2-aminothiazol-4-yl)-2-(1-carboxy-1-vinyloxyimino)acetamido]-3-(2,3-cychlopenteno-pyridinio)methyl-3-cephem-4-carboxylate (syn-isomer)] | 0.1 (≈ 0.175 µM) | 3.12 (≈ 5.47 µM) | 0.2 (≈ 0.351 µM) | 0.0125 (≈ 0.0219 µM) | 0.025 (≈ 0.0438 µM) | 0.78 (≈ 1.37 µM) |  | 0.78 (≈ 1.37 µM) | 100 (≈ 175 µM) | 0.0125 (≈ 0.0219 µM) | 0.39 (≈ 0.683 µM) | 0.025 (≈ 0.0438 µM) | 1.56 (≈ 2.73 µM) | 0.05 (≈ 0.0876 µM) |  |  | 0.025 (≈ 0.0438 µM) | 0.1 (≈ 0.175 µM) | 0.05 (≈ 0.0876 µM) |  | MIC (P. vulgaris HX-19; HX19, 16 h): 0.025 µg/mL (≈ 0.0438 µM); MIC (Ps. cepacia 23; Burkholderia cepacia, 23, 16 h): 0.39 µg/mL (≈ 0.683 µM); MIC (S. aureus 209P NIHJ-JC1; 16 h): 1.56 µg/mL (≈ 2.73 µM); MIC (Ps. aeruginosa AK 109; AK109, 16 h): 1.56 µg/mL (≈ 2.73 µM)
CO/N=C(\C(=O)N[C@@H]1C(=O)N2C(C(=O)O)=C(COC(C)=O)CS[C@H]12)c1csc(N)n1 [Cefotaxime, reference compound] | 0.39 (≈ 0.856 µM) | 25 (≈ 54.9 µM) | 1.56 (≈ 3.43 µM) |  | 0.05 (≈ 0.11 µM) | 6.25 (≈ 13.7 µM) |  | 0.1 (≈ 0.22 µM) | > 100 | < 0.006 | 0.05 (≈ 0.11 µM) | 0.0125 (≈ 0.0274 µM) |  | 0.05 (≈ 0.11 µM) |  | 12.5 (≈ 27.4 µM) | 0.025 (≈ 0.0549 µM) | 0.39 (≈ 0.856 µM) | 0.05 (≈ 0.11 µM) | < 0.006 | MIC (S. marcescens IAM 1184; IAM1184, 16 h): 0.0125 µg/mL (≈ 0.0274 µM); MIC (Ps. cepacia 23; Burkholderia cepacia, 23, 16 h): 6.25 µg/mL (≈ 13.7 µM); MIC (Ps. aeruginosa IFO3445; [9]): 25 µg/mL (≈ 54.9 µM); MIC (S. aureus 209P NIHJ-JC1; 16 h): 1.56 µg/mL (≈ 3.43 µM)
C=C(O/N=C(\C(=O)N[C@@H]1C(=O)N2C(C(=O)O)=C(C[n+]3ccc(CS(=O)(=O)[O-])cc3)CS[C@H]12)c1csc(N)n1)C(=O)O [Example 7, 7β-[2-(2-aminothiazol-4-yl)-2-(1-carboxy-1-vinyloxyimino]acetamido]-3-(4-sulfonatomethyl-1-pyridinio)methyl-3-cephem-4-carboxylic acid (syn-isomer)] | 0.39 (≈ 0.624 µM) | 50 (≈ 80 µM) |  | 0.0125 (≈ 0.02 µM) | 0.025 (≈ 0.04 µM) |  | 12.5 (≈ 20 µM) | 0.05 (≈ 0.08 µM) | > 100 |  | 0.39 (≈ 0.624 µM) | 0.2 (≈ 0.32 µM) |  | 0.1 (≈ 0.16 µM) | 25 (≈ 40 µM) | 25 (≈ 40 µM) |  | 1.56 (≈ 2.5 µM) | 0.1 (≈ 0.16 µM) | 0.0125 (≈ 0.02 µM) | MIC (E. cloacae Nek 39*; [10]): 3.12 µg/mL (≈ 4.99 µM); MIC (S. marcescens No. 16-2*; [10]): 3.12 µg/mL (≈ 4.99 µM); MIC (K. pneumoniae PC1-602; PC1602, 16 h): 0.025 µg/mL (≈ 0.04 µM); MIC (Ps. aeruginosa IFO3445; [9]): 3.12 µg/mL (≈ 4.99 µM); MIC (P. vulgaris No. 33*; [10]): 0.0125 µg/mL (≈ 0.02 µM)
C=C(O/N=C(\C(=O)N[C@@H]1C(=O)N2C(C(=O)O)=C(CSc3nnc(-c4ccc(O)c(O)c4)s3)CS[C@H]12)c1csc(N)n1)C(=O)O [Example 13, disodium 7β-[2-(2-aminothiazol-4-yl)-2-(1-carboxylato-1-vinyloxyimino)acetamido]-3-[5-(3,4-dihydroxyphenyl)-1,3,4-thiadiazol-2-yl]thiomethyl-3-cephem-4-carboxylate (syn-isomer)] | 0.025 |  | 0.05 |  | 0.1 | 0.05 | < 0.006 | < 0.006 |  | 0.0125 |  | < 0.006 | 0.78 | 0.05 | 3.12 |  | 0.025 | 0.2 | 0.2 | < 0.006 | MIC (A. calcoaceticus No. 4; NO.4, 16 h): 0.1 µg/mL; MIC (S. marcescens IAM 1184; IAM1184, 16 h): 0.025 µg/mL; MIC (Ps. aeruginosa AKR17; AKR17, 16 h): 1.56 µg/mL; MIC (K. pneumoniae No. 42*; [10]): 0.0125 µg/mL; MIC (Ps. aeruginosa AK 109; AK109, 16 h): 0.1 µg/mL
C=C(O/N=C(\C(=O)N[C@@H]1C(=O)N2C(C(=O)O)=C(CSc3ncc(-c4ccc(O)c(O)c4)o3)CS[C@H]12)c1csc(N)n1)C(=O)O [Example 14, disodium 7β-[2-(2-aminothiazol-4-yl)-2-(1-carboxylato-1-vinyloxyimino)acetamido]-3-[5-(3,4-dihydroxyphenyl)oxazol-2-yl]thiomethyl-3-cephem-4-carboxylate (syn-isomer)] | 0.1 | 0.2 | 0.1 | 0.05 |  | 0.39 |  | 0.025 | 3.12 | < 0.006 |  | 0.0125 | 0.78 | 0.39 |  |  | 0.025 | 1.56 | 0.78 | < 0.006 | MIC (M. morganii GN5407*; GN5407, 10^6 CFU/ml, β-Lactamase-producing strain, 37° C., 16 hours, read-out: MIC): 0.05 µg/mL; MIC (Ps. cepacia 23; Burkholderia cepacia, 23, 16 h): 0.0125 µg/mL; MIC (K. pneumoniae No. 42*; [10]): 0.05 µg/mL; MIC (S. aureus 209P NIHJ-JC1; 16 h): 6.25 µg/mL; MIC (Ps. aeruginosa AK 109; AK109, 16 h): 0.78 µg/mL
